Measured values reported in ChEMBL document CHEMBL5260832, “Hepatoprotective natural triterpenoids” (Eur J Med Chem, 2018).

Legend:
[1] = Antiproliferative activity against rat HSC-T6 assessed as reduction in cell viability at 100 uM measured at 48 hrs by MTT assay relative to control; assay type: functional
[2] = system: Mus musculus; experiment: Hepatoprotective activity in mouse model of D-GaIN/LPS-induced liver injury assessed as inhibition of beta-glucuronidase secretion at […] relative to control; assay type: functional; design: scale not given: the % may be the effect or the level left; details: dose 10 µg/ml
[3] = system: HepG2; experiment: Hepatoprotective activity against H2O2-induced cell death in human HepG2 cells assessed as elevated level AST at 65.7 uM; assay type: functional
[4] = system: HepG2; experiment: Hepatoprotective activity against H2O2-induced cell death in human HepG2 cells assessed as elevated level ALT at 65.7 uM; assay type: functional
[5] = Hepatotoxicity in CCl4-induced liver damage in ICR mouse model assessed as reduction in sGPT level at 10 mg/kg relative to control; assay type: toxicity, organism-based; design: scale not given: the % may be the effect or the level left; details: in vivo
[6] = Hepatotoxicity in CCl4-induced liver damage in ICR mouse model assessed as reduction in sGOT level at 10 mg/kg relative to control; assay type: toxicity, organism-based; design: scale not given: the % may be the effect or the level left; details: in vivo

Work on `C[C@H]1[C@@H](O)CC[C@@H]2[C@]1(C)CC[C@H]1[C@@]2(C)CC[C@@]2(C)[C@@H]3CC(C)(C)CC[C@]3(C)CC[C@]12C` [EPIFRIEDELINOL] yielded an Activity [1] of 61%.
`CC(C)=CCC[C@]1(C)CC[C@]2(C)[C@H]3CC=C4[C@@H](CC[C@H](O)C4(C)C)[C@]3(C)CC[C@@]2(C)C1` gave an Activity [2] of 57%.
Work on `C[C@H]1C(=O)CC[C@@H]2[C@]1(C)CC[C@H]1[C@@]2(C)CC[C@@]2(C)[C@@H]3CC(C)(C)CC[C@]3(C)CC[C@]12C` [FRIEDELINE] yielded an Activity [3] of 67.5% and an Activity [4] of 30.8%.
Work on `C=C(C)[C@@H]1CC[C@]2(C)CC[C@]3(C)[C@H](CC[C@@H]4[C@@]5(C)CC[C@@H](OC(=O)CCCCCCCCCCCCCCC)C(C)(C)[C@@H]5CC[C@]43C)[C@@H]12` yielded an Activity [5] of 6.9% and an Activity [6] of 9.2%.
